The numbers were not newly measured in patent publication US8389009B2, “Spatial control of signal transduction” (Wisconsin Alumni Research Foundation, priority 2005, dated 2013), which cites them from elsewhere.

Data set [1] deals with T1, IGF-1 (Homo sapiens, UniProt P05019). Conditions: natural receptor binding IGF-1, according to previous studies; read-out: affinity (dissociation constant KD).
The target in data set [2] is T2, VEGF (Homo sapiens, UniProt P15692).
T2 sequence (P15692 27-191 isoform P15692-4): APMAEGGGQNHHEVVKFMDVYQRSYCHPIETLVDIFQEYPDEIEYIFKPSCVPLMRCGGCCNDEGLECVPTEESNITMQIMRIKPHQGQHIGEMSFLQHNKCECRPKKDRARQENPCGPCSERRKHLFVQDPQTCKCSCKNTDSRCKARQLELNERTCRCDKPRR
Particulars: handle for VEGF; literature value; read-out: Affinity (KD).

Data set [3] addresses T1, IGF-1. Conditions: handle for IGF-1; literature value; read-out: Affinity (KD).
In data set [4] the target is T2, VEGF. Particulars: natural receptor binding VEGF, according to previous studies; read-out: affinity (dissociation constant KD).

Where two headings read alike, the source gives them in different places.

T1 sequence (P05019 49-118 limits assumed): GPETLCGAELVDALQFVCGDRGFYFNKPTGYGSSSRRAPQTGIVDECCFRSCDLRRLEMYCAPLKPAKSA

“natural IGF-1 receptor: natural cell surface receptor that binds IGF-1”: the dissociation constant (Kd) with IGF-1 [1] is roughly 0.16 nM.
Regarding VEPNCDIHVMWEWECFERL [SEQ ID NO: 5], the Kd on VEGF [2] is 200 nM.
For RNCFESVAALRRCMY [SEQ ID NO: 8], on IGF-1 [3], the equilibrium dissociation constant (Kd) was 100 nM.
Regarding AUGCAGUUUGAGAAGUCGCGGAU [SEQ ID NO: 1], the equilibrium dissociation constant (Kd) in the data set with VEGF [2] was 0.01 nM.
On to “AGUUUUGGAAGAAUUGGAUGUUCCGAUCGU (chemistry not given here) [SEQ ID NO: 3]”, for which the dissociation constant (Kd) in the data set with VEGF [2] was 10 nM.
Consider “GGAAGAAUUGGUCAUCGUCGUCUCCGCCUCCC (chemistry not given here) [SEQ ID NO: 4]”, for which the Kd with VEGF [2] is 100 nM.
Turning to “AAGAAACGGAAGAAUUGGAGACACGCUCGU (chemistry not given here) [SEQ ID NO: 2]”, the Kd with VEGF [2] was 1 nM.
Take EELWCFDGPRAWVCGYVK [SEQ ID NO: 7]: the dissociation constant (Kd) on VEGF [2] was 10000 nM.
As for VTCAADALGFLYCWE [SEQ ID NO: 10], at IGF-1 [3], the dissociation constant (Kd) is 2000 nM.
As for HDCFASVEALRRCMY [SEQ ID NO: 9], the equilibrium dissociation constant (Kd) on IGF-1 [3] was 500 nM.

B1: natural VEGF receptor 1: natural cell surface receptor that binds VEGF (protein, UniProt P17948 27-1338, looked up)
Vascular endothelial growth …: SKLKDPELSLKGTQHIMQAGQTLHLQCRGEAAHKWSLPEMVSKESERLSITKSACGRNGKQFCSTLTLNTAQANHTGFYSCKYLAVPTSKKKETESAIYIFISDTGRPFVEMYSEIPEIIHMTEGRELVIPCRVTSPNITVTLKKFPLDTLIPDGKRIIWDSRKGFIISNATYKEIGLLTCEATVNGHLYKTNYLTHRQTNTIIDVQISTPRPVKLLRGHTLVLNCTATTPLNTRVQMTWSYPDEKNKRASVRRRIDQSNSHANIFYSVLTIDKMQNKDKGLYTCRVRSGPSFKSVNTSVHIYDKAFITVKHRKQQVLETVAGKRSYRLSMKVKAFPSPEVVWLKDGLPATEKSARYLTRGYSLIIKDVTEEDAGNYTILLSIKQSNVFKNLTATLIVNVKPQIYEKAVSSFPDPALYPLGSRQILTCTAYGIPQPTIKWFWHPCNHNHSEARCDFCSNNEESFILDADSNMGNRIESITQRMAIIEGKNKMASTLVVADSRISGIYICIASNKVGTVGRNISFYITDVPNGFHVNLEKMPTEGEDLKLSCTVNKFLYRDVTWILLRTVNNRTMHYSISKQKMAITKEHSITLNLTIMNVSLQDSGTYACRARNVYTGEEILQKKEITIRDQEAPYLLRNLSDHTVAISSSTTLDCHANGVPEPQITWFKNNHKIQQEPGIILGPGSSTLFIERVTEEDEGVYHCKATNQKGSVESSAYLTVQGTSDKSNLELITLTCTCVAATLFWLLLTLFIRKMKRSSSEIKTDYLSIIMDPDEVPLDEQCERLPYDASKWEFARERLKLGKSLGRGAFGKVVQASAFGIKKSPTCRTVAVKMLKEGATASEYKALMTELKILTHIGHHLNVVNLLGACTKQGGPLMVIVEYCKYGNLSNYLKSKRDLFFLNKDAALHMEPKKEKMEPGLEQGKKPRLDSVTSSESFASSGFQEDKSLSDVEEEEDSDGFYKEPITMEDLISYSFQVARGMEFLSSRKCIHRDLAARNILLSENNVVKICDFGLARDIYKNPDYVRKGDTRLPLKWMAPESIFDKIYSTKSDVWSYGVLLWEIFSLGGSPYPGVQMDEDFCSRLREGMRMRAPEYSTPEIYQIMLDCWHRDPKERPRFAELVEKLGDLLQANVQQDGKDYIPINAILTGNSGFTYSTPAFSEDFFKESISAPKFNSGSSDDVRYVNAFKFMSLERIKTFEELLPNATSMFDDYQGDSSTLLASPMLKRFTWTDSKPKASLKIDLRVTSKSKESGLSDVSRPSFCHSSCGHVSEGKRRFTYDHAELERKIACCSPPPDYNSVVLYSTPPI
For the molecule B1, the dissociation constant (Kd) with VEGF [4] is roughly 0.0075 nM.

What is called Kd is the concentration at which binding is half-saturated.
